Data as given in PMC11859423, “Fluorescent Probes to Image the KCa3.1 Channel in Tumor Cells” (Pharmaceutics, 2025).
Where “and” joins values, the source holds several entries; their conditions need not be identical. Equal values may be shown once.

What was measured:
Type in all cases: cell-based
[1] = biological target: T1, KCa3.1 channel in A549-3R cells (Homo sapiens, UniProt O15554); assay: Staining of fixed A549-3R tumor cells (Protocol 1), fluorescence microscopy; details: 10 min, 4 °C
T1 construct: the non-small cell lung cancer cell line A549-3R with a high expression of the KCa3.1 channel was employed; endogenous in cells; host or cells: A549-3R cells
Description: For the fixation of the cells, the DMEM medium was removed from the glass bottom dish after incubation for 24 h, and the cells were washed with 1 mL of PBS. Subsequently, 1 mL of 4% paraformaldehyde in PBS solution was added to the glass bottom dish and the mixture was incubated for 30 min at room temperature. Thereafter, the cells were washed five times with 1 mL of PBS and used for the cell staining experiments.
After fixation of the cells (Section 2.10.2), 300 µL of the 10 µM staining solution was added to the glass bottom dish. The cells were incubated for 10 min at 4 °C in a dark chamber. After incubation, the cells were washed five times with 1 mL of PBS and used subsequently for fluorescence microscopy.
(§1) An Axiovert 200 inverted microscope (Carl Zeiss AG, Jena, Germany) with a ×100 oil immersion objective and a digital camera (SPOT RT SE from Diagnostic Instruments Inc., Livingston, UK) were used. The camera was controlled by MetaVue software (version 6.3r6, Visitron, Germany). Two different filter sets were employed, the FITC filter set (Carl Zeiss Filter Set 10 bandwidth excitation filter 450–490, color splitter 510, bandpass filter 515–565) and the TRITC filter set (Carl Zeiss Filter Set 15, bandpass excitation filter 546/12, dichroic mirror 580, emission filter Long Pass 590).
(§2) Using the free imaging software ImageJ (1.53f51, NIH, USA), squares with an edge length of 50 × 50 pixels, corresponding to an area of 9 µm^2, were randomly placed in a cell and signals with Full Width at Half Maximum (FWHM) of ≤5 pixels (~300 nm) were counted as a KCa3.1 channel. For the evaluation, 7 squares were analyzed.
For the staining experiments, the non-small cell lung cancer cell line A549-3R with a high expression of the KCa3.1 channel was employed. An optimized staining protocol (Protocol 1) described previously was followed to analyze the imaging properties of the fluorescent probes. In brief, the 10 µM solution of the senicapoc–dye conjugate in PBS was added to adherent A549-3R cells in a glass bottom dish and the set-up was incubated for 10 min at 4 °C in a dark chamber. After careful washing, the cells were analyzed with a fluorescence microscope.
The images were analyzed with respect to size and density of the fluorescent dots. For this purpose, a square with a size of 50 × 50 pixels was randomly placed on the cell images using ImageJ. The intensities of the signals within the square were analyzed to calculate the Full Width at Half Maximum (FWHM) for each selected dot, which represents a measure for the signal size. For the accurate representation of a single KCa3.1 channel, the FWHM should be in the range of five pixels. Signals with a FWHM of ≤5 pixels within the square were regarded as labeled KCa3.1 channels and the number of identified channels was used to determine the density of the ion channels on the cells (Figure S8, Supplementary Materials).

[2] = biological target: T1, KCa3.1 channel in A549-3R cells; assay: Staining of living A549-3R cells (Protocol 2)
Description: The cells were used without fixation. After incubation of the cells for 24 h (Section 2.10.1), the medium was removed, and the cells were washed three times with 1 mL of PBS. […]
as §1, §2
In the next experiment, living A549-3R cells were stained with 10b.

[3] = biological target: T1, KCa3.1 channel in A549-3R cells; assay: Blocking of staining by preincubation with senicapoc, fixed and living A549-3R cells (Protocols 3 and 4); details: 30 µM senicapoc, 5 min, 4 °C
Description: After fixation of the cells (Section 2.10.2), 300 µL of a 30 µM solution of senicapoc blocking solution was added to the glass bottom dish. The glass bottom dish was incubated for 5 min at 4 °C. After incubation, the solution was removed and a mixture of 150 µL of 60 µM senicapoc solution and 150 µL of 20 µM staining solution were added to the glass bottom dish. The cells were incubated for 10 min at 4 °C in a dark chamber. Subsequently, the cells were washed five times with PBS and then used for fluorescence microscopy.
The cells were used without fixation. After incubating the cells for 24 h (Section 2.10.1), the medium was removed, and the cells were washed three times with 1 mL of PBS. Subsequently, the cells were stained as described in Protocol 3.
In order to show the specificity of labeling KCa3.1 channels by the fluorescent probe 10b, fixed and living cells were preincubated with 30 µM senicapoc (3) for 5 min at 4 °C. […] The complete blockade of the punctate staining pattern confirms that the KCa3.1 channel was labeled with probe 10b.

[4] = living A549-3R cells, Protocol 2

In the case of `CCC1=C(C)C2=C(c3ccc(OCCOCCn4cc(COc5ccc(C(C(N)=O)(c6ccccc6)c6ccc(F)cc6)cc5)nn4)cc3)c3c(C)c(CC)c(C)n3[B-](F)(OC)[N+]2=C1C` (stereo not shown) [10b, 2-{4-[(1-{2-[4-(2,6-Diethyl-4-fluoro-4-methoxy-1,3,5,7-tetramethyl-4-bora-3a,4a-diaza-s-indacen-8-yl)phenoxy]ethoxyethyl}-1,2,3-triazol-4-yl)methoxy]phenyl}-2-(4-flluorophenyl)-2-phenylacetamide], the “staining pattern of fixed A549-3R tumor cells” value ([1]; 10 µM in PBS, Protocol 1) is reported as “expected punctate staining pattern of the membrane”, the “FWHM of fluorescent dots” value ([1]; fixed A549-3R cells, 10 µM) is reported as 5.27 ± 0.22 pixels and 5.27 pixels and the “density of labeled KCa3.1 channels” value ([1]; fixed A549-3R cells, 10 µM) is reported as 1.22 ± 0.26 KCa3.1 channels per µm^2 and 1.22 KCa3.1 channels per µm^2. The “staining pattern of living A549-3R cells” value ([2]; Protocol 2, 10 µM, 10 min, 4 °C) was “distinct punctate staining pattern”, the “FWHM of fluorescent dots” value [2, 4] was 4.89 ± 0.50 pixels and the “density of labeled KCa3.1 channels” value [2, 4] was 1.11 ± 0.11 KCa3.1 channels per µm^2. For the same molecule, the “staining pattern after preincubation with senicapoc” value [3] was “did not lead to a punctate staining pattern”.
